# Data reported in US20250144067A1, “PERSONALIZED STARVATION THERAPY FOR CANCER” (Faeth Therapeutics, Inc., priority 2021, published 2025).
# Structures can show the parent of a compound that is named as a salt. Where two headings read alike, the source gives them in different places.
# Tests used:
# [1] = test system: NCI-H292 lung cancer cells; assay: FDA drug screening, complete media vs cholesterol-free media without statin (TABLE 1); type: cell-based, human
# [2] = test system: NCI-H292 lung cancer cells; assay: FDA drug screening, complete media vs cholesterol-free media with simvastatin (TABLE 2); type: cell-based, human
# [3] = Complete minus Cholesterol-free, >0 enhanced anti-cancer activity, about 0 neutral, <0 antagonist
# [4] = NCI-H292 cells, cholesterol-free media without statin, FDA drug library screen
# [5] = NCI-H292 cells, complete media, FDA drug library screen
# [6] = NCI-H292 cells, cholesterol-free media with simvastatin 0.04 μM, FDA drug library screen (TABLE 2)
# [7] = NCI-H292 cells, complete media, FDA drug library screen (TABLE 2)
# [8] = complete media minus cholesterol-free media + simvastatin (0.04 μM), >0 enhanced anti-cancer activity, about 0 neutral, <0 antagonist
# [9] = Complete minus Cholesterol-free, greater than 0 enhanced anti-cancer activity, about 0 neutral, below 0 antagonists
# [10] = NCI-H292 cells in cholesterol-free media without statin
# [11] = NCI-H292 cells in complete media
# [12] = NCI-H292 cells, FDA drug library screen, cholesterol-free media with simvastatin 0.04 μM
# [13] = NCI-H292 cells, FDA drug library screen, complete media
# [14] = complete media vs cholesterol-free media + simvastatin (0.04 μM), >0 enhanced anti-cancer activity, about 0 neutral, <0 antagonist
# [15] = complete vs cholesterol-free media, >0 enhanced anti-cancer activity, about 0 neutral, <0 antagonist
# [16] = complete media minus cholesterol-free media + simvastatin, >0 enhanced anti-cancer activity, about 0 neutral, <0 antagonist
# [17] = NCI-H292 cells, cholesterol-free media without statin
# [18] = complete vs cholesterol-free media, greater than 0 enhanced anti-cancer activity, about 0 neutral, below 0 antagonists
# [19] = NCI-H292 cells, cholesterol-free media with simvastatin 0.04 μM, cell growth value in FDA drug screen
# [20] = NCI-H292 cells, complete media, cell growth value in FDA drug screen
# [21] = Complete minus Cholesterol-free, greater than 0 enhanced anti-cancer activity, about 0 neutral, below 0 antagonist
# [22] = NCI-H292 cells, FDA drug library screen, cholesterol-free media without statin
# [23] = NCI-H292 cells, FDA library drug in cholesterol-free media with simvastatin 0.04 μM
# [24] = NCI-H292 cells, FDA library drug in complete media
# [25] = NCI-H292 cells, drug in cholesterol-free media with simvastatin 0.04 μM
# [26] = NCI-H292 cells, drug in complete media
structure (smiles),measurement,setting,value
COc1cc2nc(N3CCN(C(=O)C4CCCO4)CC3)nc(N)c2cc1OC (stereo not drawn) [Terazosin (hydrochloride dihydrate)],Difference,[1]; [3],−0.06
same,Cholesterol-free,[1]; [4],0.8804
same,Complete,[1]; [5],0.821
same,Cholesterol-free media + simvastatin (0.04 μM),[2]; [6],1.029
same,Complete Media,[2]; [7],0.9806
same,Difference,[2]; [8],−0.05
CN(C/C=C/C#CC(C)(C)C)Cc1cccc2ccccc12 [Terbinafine hydrochloride],Difference,[1]; [9],−0.57
same,Cholesterol-free,[1]; [10],1.793
same,Complete,[1]; [11],1.222
same,Cholesterol-free media + simvastatin (0.04 μM),[2]; [12],1.241
same,Complete Media,[2]; [13],1.124
same,Difference,[2]; [14],−0.12
CN(C/C=C/C#CC(C)(C)C)Cc1cccc2ccccc12 [Terbinafine],Cholesterol-free,[1]; [4],1.229
same,Complete,[1]; [5],1.421
same,Difference,[1]; [15],0.19
same,Cholesterol-free media + simvastatin (0.04 μM),[2]; [12],1.066
same,Complete Media,[2]; [13],0.9483
same,Difference,[2]; [14],−0.12
CC(C)N1CCN(c2ccc(OCC3COC(Cn4cncn4)(c4ccc(Cl)cc4Cl)O3)cc2)CC1 (stereo not drawn) [Terconazole],Cholesterol-free,[1]; [4],1.052
same,Complete,[1]; [5],1.158
same,Difference,[1]; [15],0.11
same,Cholesterol-free media + simvastatin (0.04 μM),[2]; [12],0.6294
same,Complete Media,[2]; [13],1.003
same,Difference,[2]; [16],0.37
CC(C)(C)c1ccc(C(O)CCCN2CCC(C(O)(c3ccccc3)c3ccccc3)CC2)cc1 (stereo not drawn) [Terfenadine],Cholesterol-free,[1]; [17],1.145
same,Complete,"[1]; NCI-H292 cells, complete media",0.8219
same,Difference,[1]; [18],−0.32
same,Cholesterol-free media + simvastatin (0.04 μM),[2]; [19],0.9762
same,Complete Media,[2]; [20],1.013
same,Difference,[2]; [16],0.04
C/C(O)=C(\C#N)C(=O)Nc1ccc(C(F)(F)F)cc1 [Teriflunomide],Difference,[1]; [21],−0.16
same,Cholesterol-free,[1]; [22],1.092
same,Complete,[1]; [13],0.9318
same,Cholesterol-free media + simvastatin (0.04 μM),[2]; [23],1.712
same,Complete Media,[2]; [24],0.9665
same,Difference,[2]; [14],−0.75
CC[C@H](C)[C@H](NC(=O)[C@H](CCC(=O)O)NC(=O)[C@H](CO)NC(=O)[C@@H](NC(=O)[C@@H](N)CO)C(C)C)C(=O)N[C@@H](CCC(N)=O)C(=O)N[C@@H](CC(C)C)C(=O)N[C@@H](CCSC)C(=O)N[C@@H](Cc1cnc[nH]1)C(=O)N[C@@H](CC(N)=O)C(=O)N[C@@H](CC(C)C)C(=O)NCC(=O)N[C@@H](CCCCN)C(=O)N[C@@H](Cc1cnc[nH]1)C(=O)N[C@@H](CC(C)C)C(=O)N[C@@H](CC(N)=O)C(=O)N[C@@H](CO)C(=O)N[C@@H](CCSC)C(=O)N[C@@H](CCC(=O)O)C(=O)N[C@@H](CCCN=C(N)N)C(=O)N[C@H](C(=O)N[C@@H](CCC(=O)O)C(=O)N[C@@H](Cc1c[nH]c2ccccc12)C(=O)N[C@@H](CC(C)C)C(=O)N[C@@H](CCCN=C(N)N)C(=O)N[C@@H](CCCCN)C(=O)N[C@@H](CCCCN)C(=O)N[C@@H](CC(C)C)C(=O)N[C@@H](CCC(N)=O)C(=O)N[C@@H](CC(=O)O)C(=O)N[C@H](C(=O)N[C@@H](Cc1cnc[nH]1)C(=O)N[C@@H](CC(N)=O)C(=O)N[C@@H](Cc1ccccc1)C(=O)O)C(C)C)C(C)C [Teriparatide],Difference,"[1]; Complete minus Cholesterol-free, […]",−0.19
same,Cholesterol-free,[1]; [22],1.061
same,Complete,[1]; [13],0.8757
same,Cholesterol-free media + simvastatin (0.04 μM),[2]; [6],1.048
same,Complete Media,[2]; [7],1.02
same,Difference,"[2]; complete media minus cholesterol-free media + simvastatin (0.04 μM), […]",−0.03
CC1(O)CCC(C(C)(C)O)CC1 (stereo not drawn) [Terpin (hydrate)],Difference,[1]; [3],0.06
same,Cholesterol-free,[1]; [4],0.8684
same,Complete,[1]; [5],0.9288
same,Cholesterol-free media + simvastatin (0.04 μM),[2]; [25],1.474
same,Complete Media,[2]; [26],1.21
same,Difference,[2]; [14],−0.26
CCC(=O)O[C@H]1CC[C@H]2[C@@H]3CCC4=CC(=O)CC[C@]4(C)[C@H]3CC[C@]12C [Testosterone propionate],Cholesterol-free,[1]; [17],1.308
same,Complete,"[1]; NCI-H292 cells, complete media",0.9212
same,Difference,"[1]; complete vs cholesterol-free media, […]",−0.39
same,Cholesterol-free media + simvastatin (0.04 μM),[2]; [23],1.059
same,Complete Media,[2]; [24],0.7669
same,Difference,"[2]; complete media vs cholesterol-free media + simvastatin (0.04 μM), […]",−0.29
COc1cc2c(cc1OC)C1CC(=O)C(CC(C)C)CN1CC2 (stereo not drawn) [Tetrabenazine],Cholesterol-free,[1]; [17],1.615
same,Complete,"[1]; NCI-H292 cells, complete media",1.162
same,Difference,[1]; [18],−0.45
same,Cholesterol-free media + simvastatin (0.04 μM),[2]; [25],1.249
same,Complete Media,[2]; [26],1.01
same,Difference,[2]; [14],−0.24
CN(C)[C@@H]1C(O)=C(C(N)=O)C(=O)[C@@]2(O)C(O)=C3C(=O)c4c(O)cccc4[C@@](C)(O)[C@H]3C[C@@H]12 [Tetracycline (hydrochloride)],Cholesterol-free,[1]; [17],1.387
same,Complete,"[1]; NCI-H292 cells, complete media",0.93
same,Difference,[1]; [18],−0.46
same,Cholesterol-free media + simvastatin (0.04 μM),[2]; [6],0.7005
same,Complete Media,[2]; [7],0.7002
same,Difference,[2]; [8],0.00
C[C@H](O)[C@H](O)[C@H]1CNc2nc(N)[nH]c(=O)c2N1 [Tetrahydrobiopterin],Difference,[1]; [21],−0.10
same,Cholesterol-free,[1]; [22],0.9498
same,Complete,[1]; [13],0.8545
same,Cholesterol-free media + simvastatin (0.04 μM),[2]; [23],1.389
same,Complete Media,[2]; [24],1.025
same,Difference,[2]; [14],−0.36
COc1cc2c(cc1OC)[C@@H]1Cc3ccc(OC)c(OC)c3CN1CC2 [Tetrahydropalmatine],Difference,[1]; [21],−0.19
same,Cholesterol-free,[1]; [22],1.084
same,Complete,[1]; [13],0.8984
same,Cholesterol-free media + simvastatin (0.04 μM),[2]; [25],0.9937
same,Complete Media,[2]; [26],0.7686
same,Difference,[2]; [14],−0.23
c1ccc2c(c1)CCCC2C1=NCCN1 (stereo not drawn) [Tetrahydrozoline (hydrochloride)],Difference,[1]; [3],−0.03
same,Cholesterol-free,[1]; [4],0.9833
same,Complete,[1]; [5],0.9541
same,Cholesterol-free media + simvastatin (0.04 μM),[2]; [12],1.06
same,Complete Media,[2]; [13],0.9332
same,Difference,[2]; [14],−0.13
c1ccc(C2CN3CCSC3=N2)cc1 (stereo not drawn) [Tetramisole (hydrochloride)],Cholesterol-free,[1]; [17],1.362
same,Complete,"[1]; NCI-H292 cells, complete media",0.9185
same,Difference,[1]; [18],−0.44
same,Cholesterol-free media + simvastatin (0.04 μM),[2]; [6],1.011
same,Complete Media,[2]; [7],0.9757
same,Difference,[2]; [8],−0.04
COc1ccc2cc1Oc1ccc(cc1)C[C@H]1c3cc(c(OC)cc3CCN1C)Oc1c(OC)c(OC)cc3c1[C@H](C2)N(C)CC3 [Tetrandrine],Cholesterol-free,[1]; [4],0.9522
same,Complete,[1]; [5],1.143
same,Difference,[1]; [15],0.19
same,Cholesterol-free media + simvastatin (0.04 μM),[2]; [25],1.133
same,Complete Media,[2]; [26],0.9661
same,Difference,[2]; [14],−0.17
CC(C)(CO)c1cc2cc(NC(=O)C3(c4ccc5c(c4)OC(F)(F)O5)CC3)c(F)cc2n1C[C@@H](O)CO [Tezacaftor],Difference,[1]; [9],−0.63
same,Cholesterol-free,[1]; [10],1.488
same,Complete,[1]; [11],0.8597
same,Cholesterol-free media + simvastatin (0.04 μM),[2]; [6],1.227
same,Complete Media,[2]; [7],1.187
same,Difference,[2]; [8],−0.04
O=C1CCC(N2C(=O)c3ccccc3C2=O)C(=O)N1 (stereo not drawn) [Thalidomide],Difference,[1]; [9],−0.92
same,Cholesterol-free,[1]; [10],1.865
same,Complete,[1]; [11],0.9496
same,Cholesterol-free media + simvastatin (0.04 μM),[2]; [25],1.184
same,Complete Media,[2]; [26],1.013
same,Difference,[2]; [14],−0.17
Cn1c(=O)c2[nH]cnc2n(C)c1=O [Theophylline],Cholesterol-free,[1]; [17],1.592
same,Complete,"[1]; NCI-H292 cells, complete media",1.176
same,Difference,[1]; [18],−0.42
same,Cholesterol-free media + simvastatin (0.04 μM),[2]; [12],1.182
same,Complete Media,[2]; [13],1.026
same,Difference,[2]; [14],−0.16
c1ccc2[nH]c(-c3cscn3)nc2c1 [Thiabendazole],Cholesterol-free,[1]; [4],0.802
same,Complete,[1]; [5],1.484
same,Difference,[1]; [15],0.68
same,Cholesterol-free media + simvastatin (0.04 μM),[2]; [12],0.9537
same,Complete Media,[2]; [13],1.187
same,Difference,[2]; [16],0.23
Cc1ncc(C[n+]2csc(CCO)c2C)c(N)n1 [Thiamine (hydrochloride)],Difference,[1]; [3],−0.20
same,Cholesterol-free,[1]; [17],1.324
same,Complete,"[1]; NCI-H292 cells, complete media",1.125
same,Cholesterol-free media + simvastatin (0.04 μM),[2]; [19],1.098
same,Complete Media,[2]; [20],1.117
same,Difference,[2]; [16],0.02
Cc1ncc(C[n+]2csc(CCO)c2C)c(N)n1 [Thiamine monochloride],Difference,[1]; [3],−0.23
same,Cholesterol-free,[1]; [17],0.9486
same,Complete,"[1]; NCI-H292 cells, complete media",0.7138
same,Cholesterol-free media + simvastatin (0.04 μM),[2]; [12],1.042
same,Complete Media,[2]; [13],0.9007
same,Difference,[2]; [14],−0.14
CS(=O)(=O)c1ccc([C@@H](O)[C@@H](CO)NC(=O)C(Cl)Cl)cc1 [Thiamphenicol],Cholesterol-free,[1]; [4],0.8085
same,Complete,[1]; [5],0.9105
same,Difference,[1]; [15],0.10
same,Cholesterol-free media + simvastatin (0.04 μM),[2]; [12],0.911
same,Complete Media,[2]; [13],0.7958
same,Difference,[2]; [14],−0.12
S=P(N1CC1)(N1CC1)N1CC1 [Thio-TEPA],Cholesterol-free,[1],0.9267
same,Complete,[1],0.7941
same,Difference,[1],−0.13
same,Cholesterol-free media + simvastatin (0.04 μM),[2],0.6864
same,Complete Media,[2],0.8177
same,Difference,[2],0.13
CSc1ccc2c(c1)N(CCC1CCCCN1C)c1ccccc1S2 (stereo not drawn) [Thioridazine (hydrochloride)],Cholesterol-free,[1]; [4],1.045
same,Complete,[1]; [5],1.124
same,Difference,[1]; [15],0.08
same,Cholesterol-free media + simvastatin (0.04 μM),[2]; [12],1.073
same,Complete Media,[2]; [13],0.9459
same,Difference,[2]; [14],−0.13
